Assay results: patent US20250066286A1, “COMPOSITIONS OF (Z)-ENDOXIFEN AND METHODS OF ENRICHMENT THEREOF” (Atossa Therapeutics, Inc., priority 2022, published 2025)
≈ marks a conversion by molar mass, not a printed value. Where two headings read alike, the source gives them in different places.

Test: Solvent mixture solubility tests of (Z)-endoxifen
Type: physicochemical
Description: To test the solubility of (Z)-endoxifen in varying conditions, 10 mg of (Z)-endoxifen was added to a stoppered tube, and 0.01 ml of the selected solvent was added (1000 mg/ml solution). The tube was shaken vigorously for 1 minute and then incubated at a constant temperature of 25.0° C. for 15 minutes. If the solid was not completed dissolved, the tube was shaken again and placed at the constant temperature of 25.0° C. for another 15 minutes. If the solid was completely dissolved at this step, it was considered to be very soluble in the selected solvent system. If the solid was not dissolved by this step, another 0.09 ml was added (yielding a 100 mg/ml solution) and an attempt to further dissolve the solid was made by the same steps of shaking and incubating twice over as described previously. If the solid was completely dissolved at this step, it was considered freely soluble. If the solid was not dissolved by this step another 0.2 ml was added (yielding a 33.3 mg/ml solution) and an attempt to further dissolve the solid was made by the same steps of shaking and incubating twice over as described previously. If the solid was completely dissolved at this step, it was considered soluble. If the solid was not dissolved by this step another, 0.7 ml was added (yielding a 10 mg/ml solution) and an attempt to further dissolve the solid was made by the same steps of shaking and incubating twice over as described previously. If the solid was completely dissolved at this step, it was considered sparingly soluble. If the solid was not dissolved by this step the sample was considered to be slightly soluble or very slightly soluble and the solution was heated until the boiling point of the solvent system (max 100° C.) under stirring with a rate of 0.5° C. per minute temperature ramp rate to verify the solubility at high temperatures. The hot solution was after cooled to room temperature with a cooling rate of 0.5° C. per minute to verify if the sample had precipitated after up to 18 hours under magnetic stirring. The same procedure was also used for the solvent mixture solubility tests. The concentrations investigated for the solvent mixture stability were 40 mg/ml and 100 mg/ml. Some solutions in the following example were precipitated by cooling of the solution from a temperature between 50-100° C. to between 10-25° C. at a rate ranging from −0.2 to −0.5° C./minute resulting in a precipitate.

[1] = 2-propanol/tetrahydrofuran 95/5 v/v, 40 mg/mL
[2] = acetone/2-propanol 67/33 v/v, 40 mg/mL
[3] = acetone/tetrahydrofuran 95/5 v/v, 40 mg/mL
[4] = ethyl acetate/2-propanol 50/50 v/v, 100 mg/mL
[5] = ethyl acetate/tetrahydrofuran 95/5 v/v, 40 mg/mL
[6] = heptane/2-propanol 50/50 v/v, 40 mg/mL

CC/C(=C(\c1ccc(O)cc1)c1ccc(OCCNC)cc1)c1ccccc1 [(Z)-endoxifen, (Z)-4-(1-(4-(2-(methylamino)ethoxy)phenyl)-2-phenylbut-1-enyl)phenol]
solubility (2-propanol/THF (95/5 v/v), organic solvent or mixture, thermodynamic from solid, 2-propanol/THF (95/5 v/v), high temperature, precipitated during cooling, read-out: Solubility): 40 mg/mL (≈ 107 mM) | solubility (2-propanol/tetrahydrofuran 95/5 v/v, organic solvent or mixture, thermodynamic from solid, 2-propanol/tetrahydrofuran 95/5 v/v, 100 mg/mL, high temperature, read-out: Solubility HT (100 mg/mL): Sol. HT): < 100 mg/mL | Solubility HT (40 mg/mL): Clear point [1]: 52.8 °C | Solubility HT (40 mg/mL): Cloudy point [1]: 28.6 °C | Solubility HT (40 mg/mL): Sol. HT (2-propanol/tetrahydrofuran 95/5 v/v, 40 mg/mL, high temperature): YES | Solubility HT (40 mg/mL): Re-PPT (2-propanol/tetrahydrofuran 95/5 v/v, 40 mg/mL, on cooling): YES | solubility (acetone/2-propanol 67/33 v/v, organic solvent or mixture, thermodynamic from solid, acetone/2-propanol 67/33 v/v, 100 mg/mL, high temperature, read-out: Solubility HT (100 mg/mL): Sol. HT): < 100 mg/mL | Solubility HT (40 mg/mL): Clear point [2]: 36.8 °C | Solubility HT (40 mg/mL): Re-PPT after 18 hours at −20° C. [2]: YES | Solubility HT (40 mg/mL): Sol. HT (acetone/2-propanol 67/33 v/v, 40 mg/mL, high temperature): YES | solubility (acetone/2-propanol (63/37 v/v), high temperature, precipitated after 18 hours at −20° C.): soluble | solubility (acetone/THF (95/5 v/v), high temperature, precipitated after 18 hours at −20° C.): soluble | solubility (acetone/acetonitrile 50/50 v/v, organic solvent or mixture, thermodynamic from solid, acetone/acetonitrile 50/50 v/v, 40 mg/mL, high temperature, read-out: Solubility HT (40 mg/mL): Sol. HT): < 40 mg/mL | solubility (acetone/acetonitrile 50/50 v/v, organic solvent or mixture, thermodynamic from solid, acetone/acetonitrile 50/50 v/v, 100 mg/mL, high temperature, read-out: Solubility HT (100 mg/mL): Sol. HT): < 100 mg/mL | solubility (acetone/acetonitrile (50/50 v/v), organic solvent or mixture, thermodynamic from solid, acetone/acetonitrile (50/50 v/v), high temperature, read-out: Solubility): < 40 mg/mL | solubility (acetone/ethyl acetate 50/50 v/v, organic solvent or mixture, thermodynamic from solid, acetone/ethyl acetate 50/50 v/v, 40 mg/mL, high temperature, read-out: Solubility HT (40 mg/mL): Sol. HT): < 40 mg/mL | solubility (acetone/ethyl acetate 50/50 v/v, organic solvent or mixture, thermodynamic from solid, acetone/ethyl acetate 50/50 v/v, 100 mg/mL, high temperature, read-out: Solubility HT (100 mg/mL): Sol. HT): < 100 mg/mL | solubility (acetone/ethyl acetate (50/50 v/v), organic solvent or mixture, thermodynamic from solid, acetone/ethyl acetate (50/50 v/v), high temperature, read-out: Solubility): < 40 mg/mL | solubility (acetone/tetrahydrofuran 95/5 v/v, organic solvent or mixture, thermodynamic from solid, acetone/tetrahydrofuran 95/5 v/v, 100 mg/mL, high temperature, read-out: Solubility HT (100 mg/mL): Sol. HT): < 100 mg/mL | Solubility HT (40 mg/mL): Clear point [3]: 47.5 °C | Solubility HT (40 mg/mL): Re-PPT after 18 hours at −20° C. [3]: YES | Solubility HT (40 mg/mL): Sol. HT (acetone/tetrahydrofuran 95/5 v/v, 40 mg/mL, high temperature): YES | solubility (butyl ethyl ether/methanol (50/50 v/v), organic solvent or mixture, thermodynamic from solid, butyl ethyl ether/methanol (50/50 v/v), high temperature, read-out: Solubility): 40 to 100 mg/mL (≈ 107 to 268 mM) | solubility (butyl methyl ether/methanol 50/50 v/v, organic solvent or mixture, thermodynamic from solid, butyl methyl ether/methanol 50/50 v/v, 100 mg/mL, high temperature, read-out: Solubility HT (100 mg/mL): Sol. HT): < 100 mg/mL | Solubility HT (40 mg/mL): Clear point (butyl methyl ether/methanol 50/50 v/v, 40 mg/mL): 31.8 °C | Solubility HT (40 mg/mL): Sol. HT (butyl methyl ether/methanol 50/50 v/v, 40 mg/mL, high temperature): YES | Solubility HT (100 mg/mL): Clear point [4]: 59.8 °C | Solubility HT (100 mg/mL): Cloudy point [4]: 25 °C | Solubility HT (100 mg/mL): Sol. HT (ethyl acetate/2-propanol 50/50 v/v, 100 mg/mL, high temperature): YES | Solubility HT (100 mg/mL): Re-PPT (ethyl acetate/2-propanol 50/50 v/v, 100 mg/mL, on cooling): YES | solubility (ethyl acetate/2-propanol (50/50 v/v), organic solvent or mixture, thermodynamic from solid, ethyl acetate/2-propanol (50/50 v/v), high temperature, precipitated during cooling, read-out: Solubility): 100 mg/mL (≈ 268 mM) | solubility (ethyl acetate/THF (95/5 v/v), organic solvent or mixture, thermodynamic from solid, ethyl acetate/THF (95/5 v/v), high temperature, precipitated during cooling, read-out: Solubility): 40 mg/mL (≈ 107 mM) | solubility (ethyl acetate/tetrahydrofuran 95/5 v/v, organic solvent or mixture, thermodynamic from solid, ethyl acetate/tetrahydrofuran 95/5 v/v, 100 mg/mL, high temperature, read-out: Solubility HT (100 mg/mL): Sol. HT): < 100 mg/mL | Solubility HT (40 mg/mL): Clear point [5]: 56.3 °C | Solubility HT (40 mg/mL): Cloudy point [5]: 51.3 °C | Solubility HT (40 mg/mL): Sol. HT (ethyl acetate/tetrahydrofuran 95/5 v/v, 40 mg/mL, high temperature): YES | Solubility HT (40 mg/mL): Re-PPT (ethyl acetate/tetrahydrofuran 95/5 v/v, 40 mg/mL, on cooling): YES | solubility (heptane/2-propanol 50/50 v/v, organic solvent or mixture, thermodynamic from solid, heptane/2-propanol 50/50 v/v, 100 mg/mL, high temperature, read-out: Solubility HT (100 mg/mL): Sol. HT): < 100 mg/mL | Solubility HT (40 mg/mL): Clear point [6]: 64.5 °C | Solubility HT (40 mg/mL): Cloudy point [6]: 33.7 °C | Solubility HT (40 mg/mL): Sol. HT (heptane/2-propanol 50/50 v/v, 40 mg/mL, high temperature): YES | Solubility HT (40 mg/mL): Re-PPT (heptane/2-propanol 50/50 v/v, 40 mg/mL, on cooling): YES | solubility (heptane/2-propanol (50/50 v/v), organic solvent or mixture, thermodynamic from solid, heptane/2-propanol (50/50 v/v), high temperature, precipitated during cooling, read-out: Solubility): 40 mg/mL (≈ 107 mM) | solubility (heptane/ethyl acetate 50/50 v/v, organic solvent or mixture, thermodynamic from solid, heptane/ethyl acetate 50/50 v/v, 40 mg/mL, high temperature, read-out: Solubility HT (40 mg/mL): Sol. HT): < 40 mg/mL | solubility (heptane/ethyl acetate 50/50 v/v, organic solvent or mixture, thermodynamic from solid, heptane/ethyl acetate 50/50 v/v, 100 mg/mL, high temperature, read-out: Solubility HT (100 mg/mL): Sol. HT): < 100 mg/mL | solubility (heptane/ethyl acetate (50/50 v/v), organic solvent or mixture, thermodynamic from solid, heptane/ethyl acetate (50/50 v/v), high temperature, read-out: Solubility): < 40 mg/mL | solubility (heptane/toluene 50/50 v/v, organic solvent or mixture, thermodynamic from solid, heptane/toluene 50/50 v/v, 40 mg/mL, high temperature, read-out: Solubility HT (40 mg/mL): Sol. HT): < 40 mg/mL | solubility (heptane/toluene 50/50 v/v, organic solvent or mixture, thermodynamic from solid, heptane/toluene 50/50 v/v, 100 mg/mL, high temperature, read-out: Solubility HT (100 mg/mL): Sol. HT): < 100 mg/mL | solubility (heptane/toluene (50/50 v/v), organic solvent or mixture, thermodynamic from solid, heptane/toluene (50/50 v/v), high temperature, read-out: Solubility): < 40 mg/mL | solubility (water/2-propanol 50/50 v/v, aqueous with cosolvent or surfactant or cyclodextrin, thermodynamic from solid, water/2-propanol 50/50 v/v, 40 mg/mL, high temperature, read-out: Solubility HT (40 mg/mL): Sol. HT): < 40 mg/mL | solubility (water/2-propanol 50/50 v/v, aqueous with cosolvent or surfactant or cyclodextrin, thermodynamic from solid, water/2-propanol 50/50 v/v, 100 mg/mL, high temperature, read-out: Solubility HT (100 mg/mL): Sol. HT): < 100 mg/mL | solubility (water/2-propanol (50/50 v/v), aqueous with cosolvent or surfactant or cyclodextrin, thermodynamic from solid, water/2-propanol (50/50 v/v), high temperature, read-out: Solubility): < 40 mg/mL | solubility (water/THF (50/50 v/v), aqueous with cosolvent or surfactant or cyclodextrin, thermodynamic from solid, water/THF (50/50 v/v), high temperature, read-out: Solubility): < 40 mg/mL | solubility (water/acetonitrile 50/50 v/v, aqueous with cosolvent or surfactant or cyclodextrin, thermodynamic from solid, water/acetonitrile 50/50 v/v, 40 mg/mL, high temperature, read-out: Solubility HT (40 mg/mL): Sol. HT): < 40 mg/mL | solubility (water/acetonitrile 50/50 v/v, aqueous with cosolvent or surfactant or cyclodextrin, thermodynamic from solid, water/acetonitrile 50/50 v/v, 100 mg/mL, high temperature, read-out: Solubility HT (100 mg/mL): Sol. HT): < 100 mg/mL | solubility (water/acetonitrile (50/50 v/v), aqueous with cosolvent or surfactant or cyclodextrin, thermodynamic from solid, water/acetonitrile (50/50 v/v), high temperature, read-out: Solubility): < 40 mg/mL | solubility (water/tetrahydrofuran 95/5 v/v, aqueous with cosolvent or surfactant or cyclodextrin, thermodynamic from solid, water/tetrahydrofuran 95/5 v/v, 40 mg/mL, high temperature, read-out: Solubility HT (40 mg/mL): Sol. HT): < 40 mg/mL | solubility (water/tetrahydrofuran 95/5 v/v, aqueous with cosolvent or surfactant or cyclodextrin, thermodynamic from solid, water/tetrahydrofuran 95/5 v/v, 100 mg/mL, high temperature, read-out: Solubility HT (100 mg/mL): Sol. HT): < 100 mg/mL
